Numbers after ± are expanded uncertainties.
Conditions: Liquid, Closed cell (Static) method

vapor or sublimation pressure (303.15 K) [kPa]	vapor or sublimation pressure (318.15 K) [kPa]	vapor or sublimation pressure (333.15 K) [kPa]	SMILES
10.42 ± 0.38	23.02 ± 0.46	46.63 ± 0.58	CCO [ethanol]
3.63 ± 0.31	9.01 ± 0.34	19.93 ± 0.39	CCCO [propan-1-ol]

SMILES	vapor or sublimation pressure (303.15 K) [kPa]	vapor or sublimation pressure (318.15 K) [kPa]	vapor or sublimation pressure (333.15 K) [kPa]
CC1CO1 (centres undefined) [methyloxirane]	86.9 ± 1.2	147.85 ± 1.9	237.88 ± 2.8

Source: the NIST ThermoML archive (doi:10.1016/j.jct.2015.02.006)
